# From patent publication US7960376B2, “Benzo-fused heterocycles” (priority 2007, dated 2011)
# Legend:
# Type in all cases: cell-based
# rat CB2 receptor (rCB2) = biological target: T1, rat CB2 receptor (rCB2) (Rattus norvegicus, UniProt Q9QZN9); test: cell-based; details: intracellular cAMP, CHO-K1 cells, NKH-477 prestimulated; + agonist, − inverse agonist
# T1 sequence (Q9QZN9 1-360): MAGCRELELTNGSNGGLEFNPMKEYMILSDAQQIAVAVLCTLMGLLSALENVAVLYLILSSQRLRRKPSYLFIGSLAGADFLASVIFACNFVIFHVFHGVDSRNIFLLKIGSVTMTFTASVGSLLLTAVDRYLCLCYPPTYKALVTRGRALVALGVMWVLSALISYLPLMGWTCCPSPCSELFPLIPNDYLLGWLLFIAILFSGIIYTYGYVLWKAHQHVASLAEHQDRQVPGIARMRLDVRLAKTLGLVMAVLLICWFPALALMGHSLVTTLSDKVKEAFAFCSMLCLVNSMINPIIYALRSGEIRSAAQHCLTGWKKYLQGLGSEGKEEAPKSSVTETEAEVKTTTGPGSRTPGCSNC
# [1] = biological target: human CB2 receptor (hCB2) (Homo sapiens, UniProt P34972); test: cell-based; details: intracellular cAMP, CHO-K1 cells, NKH-477 prestimulated; + agonist, − inverse agonist
# [2] = biological target: human CB1 receptor (hCB1) (Homo sapiens, UniProt P21554); test: cAMP assay (LANCE TR-FRET) in CHO-K1 cells expressing hCB1; details: intracellular cAMP, NKH-477 prestimulated, + agonist, − inverse agonist
# Chain of human CB1 receptor (hCB1) (P21554 whole entry): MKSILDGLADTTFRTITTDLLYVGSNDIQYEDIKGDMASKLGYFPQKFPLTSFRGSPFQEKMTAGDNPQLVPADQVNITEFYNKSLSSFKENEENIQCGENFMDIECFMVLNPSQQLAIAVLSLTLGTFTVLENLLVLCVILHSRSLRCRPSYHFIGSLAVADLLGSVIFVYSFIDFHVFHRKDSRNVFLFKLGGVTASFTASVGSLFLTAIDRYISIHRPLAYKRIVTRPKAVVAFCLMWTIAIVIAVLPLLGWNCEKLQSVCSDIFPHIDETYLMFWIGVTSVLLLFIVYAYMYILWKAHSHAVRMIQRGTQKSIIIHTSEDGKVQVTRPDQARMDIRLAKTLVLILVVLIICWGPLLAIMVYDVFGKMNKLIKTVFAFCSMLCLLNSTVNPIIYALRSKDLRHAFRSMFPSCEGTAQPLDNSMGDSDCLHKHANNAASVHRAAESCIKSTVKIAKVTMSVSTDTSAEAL
# Chain of human CB2 receptor (hCB2) (P34972 whole entry): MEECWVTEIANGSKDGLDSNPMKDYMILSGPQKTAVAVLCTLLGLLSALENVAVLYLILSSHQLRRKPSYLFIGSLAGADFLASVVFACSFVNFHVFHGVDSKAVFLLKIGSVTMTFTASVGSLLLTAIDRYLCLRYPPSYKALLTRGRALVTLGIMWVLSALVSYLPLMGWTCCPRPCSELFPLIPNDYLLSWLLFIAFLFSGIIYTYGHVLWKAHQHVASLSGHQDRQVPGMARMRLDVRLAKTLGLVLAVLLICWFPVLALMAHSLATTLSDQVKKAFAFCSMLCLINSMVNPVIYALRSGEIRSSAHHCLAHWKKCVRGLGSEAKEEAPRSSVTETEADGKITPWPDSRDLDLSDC
SMILES,rCB2 EC50 range (rat CB2 receptor (rCB2)),hCB2 EC50 range [1],hCB1 EC50 range [2]
O=C(NC12CC3CC(CC(C3)C1)C2)c1ccc2c(c1)N(C(=O)c1ccc(F)cc1)CCS2 [Example 22],−D,−E,−E
"CCc1noc(-c2ccc3c(c2)N(S(=O)(=O)c2ccc(C(F)(F)F)cc2)CCS3)n1 [Example 89, 3-ethyl-5-(4-(4-(trifluoromethyl)phenylsulfonyl)-3,4-dihydro-2H-benzo[b][1,4]thiazin-6-yl)-1,2,4-oxadiazole]",+A,+B,+D
"O=C(NC1CCCC1)c1ccc2c(c1)N(S(=O)(=O)c1ccc(F)cc1)CCO2 [Example 62, N-cyclopentyl-4-(4-fluorophenylsulfonyl)-3,4-dihydro-2H-benzo[b][1,4]oxazine-6-carboxamide]",+A,+B,+D
"CC(C)(C)NC(=O)c1ccc2c(c1)N(C(=O)c1ccc(F)cc1)CCS2 [Example 6, N-tert-butyl-4-(4-fluorobenzoyl)-3,4-dihydro-2H-benzo[b][1,4] thiazine-6-carboxamide]",−E,,−E
"O=C(NC1CCCC1)c1ccc2c(c1)N(C(=O)c1ccc(F)cc1)CCS2 [Example 12, N-cyclopentyl-4-(4-fluorobenzoyl)-3,4-dihydro-2H-benzo[b] [1,4]thiazine-6-carboxamide]",−D,,−E
"COc1ccc(C(=O)N2CCSc3ccc(C(=O)NC(C)(C)C)cc32)cc1 [Example 7, N-tert-butyl-4-(4-methoxybenzoyl)-3,4-dihydro-2H-benzo[b] [1,4]thiazine-6-carboxamide]",−E,,−E
"O=C(NC12CC3CC(CC(C3)C1)C2)c1ccc2c(c1)N(S(=O)(=O)c1ccc(F)cc1)CCS2 [Example 51, N-(1-adamantyl)-4-(4-fluorophenylsulfonyl)-3,4-dihydro-2H-benzo[b][1,4]thiazine-6-carboxamide]",−C,,+D
"CC(C)CNC(=O)c1ccc2c(c1)N(C(=O)c1ccc(Cl)cc1)CCS2 [Example 1, 4-(4-chlorobenzoyl)-N-isobutyl-3,4-dihydro-2H-benzo[b][1,4]thiazine-6-carboxamide]",,−E,−E
"CC(C)CNC(=O)c1ccc2c(c1)N(S(=O)(=O)c1ccccc1)CCC(C)(C)S2 [Example 92, N-isobutyl-2,2-dimethyl-5-(phenyl-sulfonyl)-2,3,4,5-tetrahydrobenzo[b][1,4] thiazepine-7-carboxamide]",−E,,−E
"Cc1ccc(C(=O)N2CCSc3ccc(C(=O)NCC(C)C)cc32)cc1 [Example 4, N-isobutyl-4-(4-methylbenzoyl)-3,4-dihydro-2H-benzo[b][1,4] thiazine-6-carboxamide]",,−E,−E
"CC1(C)CCN(S(=O)(=O)c2ccccc2)c2cc(C(=O)N3CCCCC3)ccc2S1 [Example 93, (2,2-dimethyl-5-(phenylsulfonyl)-2,3,4,5-tetrahydro-benzo[b][1,4]thiazepin-7-yl)(piperidin-1-yl)methanone]",+C,,−E
"Cc1ccc(C(=O)N2CCSc3ccc(C(=O)NC(C)(C)C)cc32)cc1 [Example 8, N-tert-butyl-4-(4-methylbenzoyl)-3,4-dihydro-2H-benzo[b][1,4]thiazine-6-carboxamide]",,,−E
"CC1(C)CCN(S(=O)(=O)c2ccc(F)cc2)c2cc(C(=O)NCC3CCOCC3)ccc2S1 [Example 99, 5-(4-fluorophenyl-sulfonyl)-2,2-dimethyl-N-((tetrahydro-2H-pyran-4-yl)methyl)-2,3,4,5-tetrahydro-benzo[b][1,4]thiazepine-7-carboxamide]",−C,,−E
"C[C@@H](NC(=O)c1ccc2c(c1)N(S(=O)(=O)c1ccccc1)CCC(C)(C)S2)C(C)(C)C [Example 97, (R)-N-(3,3-dimethyl-butan-2-yl)-2,2-dimethyl-5-(phenyl-sulfonyl)-2,3,4,5-tetrahydrobenzo[b][1,4] thiazepine-7-carboxamide]",,+D,−D
"CC(C)(C)CNC(=O)c1ccc2c(c1)N(S(=O)(=O)c1ccccc1)CCC(C)(C)S2 [Example 96, 2,2-dimethyl-N-neo-pentyl-5-(phenyl-sulfonyl)-2,3,4,5-tetrahydrobenzo[b][1,4] thiazepine-7-carboxamide]",,+D,−D
"CCN(CC)C(=O)c1ccc2c(c1)N(S(=O)(=O)c1ccc(F)cc1)CCS2 [Example 70, N,N-diethyl-4-(4-fluorophenylsulfonyl)-3,4-dihydro-2H-benzo[b][1,4]thiazine-6-carboxamide]",+C,+D,

SMILES,rCB2 EC50 range (rat CB2 receptor (rCB2)),hCB2 EC50 range [1],hCB1 EC50 range [2]
"COc1ccc(C(=O)N2CCSc3ccc(C(=O)NC(C)C)cc32)cc1 [Example 30, N-isopropyl-4-(4-methoxybenzoyl)-3,4-dihydro-2H-benzo[b][1,4]thiazine-6-carboxamide]",−E,−E,
"CC(C)C(=O)N1CCSc2ccc(C(=O)NC3CCCC3)cc21 [Example 37, N-cyclopentyl-4-isobutyryl-3,4-dihydro-2H-benzo[b][1,4]thiazine-6-carboxamide]",−E,+E,
"CC(C)CNC(=O)c1ccc2c(c1)N(C(=O)c1ccc(F)cc1)CCS2 [Example 3, 4-(4-fluorobenzoyl)-N-isobutyl-3,4-dihydro-2H-benzo[b][1,4] thiazine-6-carboxamide]",−E,,−E
"CCC(=O)N1CCSc2ccc(C(=O)NC34CC5CC(CC(C5)C3)C4)cc21 [Example 39, N-(1-adamantyl)-4-propionyl-3,4-dihydro-2H-benzo[b][1,4]thiazine-6-carboxamide]",−E,,−E
"CC(C)CNC(=O)c1ccc2c(c1)N(S(=O)(=O)c1ccccc1)CCO2 [Example 59, N-isobutyl-4-(phenylsulfonyl)-3,4-dihydro-2H-benzo [b][1,4]oxazine-6-carboxamide]",+C,+C,
"COC(=O)[C@@H](NC(=O)c1ccc2c(c1)N(S(=O)(=O)c1ccccc1)CCC(C)(C)S2)C(C)(C)C [Example 95, (S)-methyl 2-(2,2-dimethyl-5-(phenyl-sulfonyl)-2,3,4,5-tetrahydrobenzo[b][1,4]thiazepine-7-carboxamido)-3,3-dimethylbutanoate]",,+D,−D
CCc1noc(-c2ccc3c(c2)N(S(=O)(=O)c2ccccc2)CCS3)n1 [Example 86],+A,+B,
"O=C(c1ccc2c(c1)N(S(=O)(=O)c1ccccc1)CCS2)N1CCCCC1 [Example 67, (4-(phenylsulfonyl)-3,4-dihydro-2H-benzo[b][1,4]thiazin-6-yl)(piperidin-1-yl)methanone]",+C,+D,
"CC(C)NC(=O)c1ccc2c(c1)N(S(C)(=O)=O)CCS2 [Example 57, N-isopropyl-4-(methylsulfonyl)-3,4-dihydro-2H-benzo[b][1,4]thiazine-6-carboxamide]",+D,+E,
"CC(C)(C)NC(=O)c1ccc2c(c1)N(C(=O)c1ccc(Cl)cc1)CCS2 [Example 10, N-tert-butyl-4-(4-chlorobenzoyl)-3,4-dihydro-2H-benzo[b][1,4]thiazine-6-carboxamide]",+D,+D,
O=C(c1ccc2c(c1)N(S(=O)(=O)c1ccccc1)CCS2)N1CCOCC1 [Example 68],+D,+D,
"COCCCNC(=O)c1ccc2c(c1)N(C(=O)c1ccccc1)CCS2 [Example 16, 4-benzoyl-N-(3-methoxypropyl)-3,4-dihydro-2H-benzo[b][1,4]thiazine-6-carboxamide]",−D,−E,
"COc1ccc(C(=O)N2CCSc3ccc(C(=O)NC4CCCC4)cc32)cc1 [Example 11, N-cyclopentyl-4-(4-methoxybenzoyl)-3,4-dihydro-2H-benzo[b] [1,4]thiazine-6-carboxamide]",−D,−E,
"O=C(NNC(=O)c1ccc2c(c1)N(S(=O)(=O)c1ccc(F)cc1)CCS2)c1ccccc1 [Example 78, N′-benzoyl-4-(4-fluorophenylsulfonyl)-3,4-dihydro-2H-benzo[b][1,4]thiazine-6-carbohydrazide]",+D,+E,
"COCCCNC(=O)c1ccc2c(c1)N(S(=O)(=O)c1ccccc1)CCS2 [Example 48, N-(3-methoxypropyl)-4-(phenylsulfonyl)-3,4-dihydro-2H-benzo[b][1,4]thiazine-6-carboxamide]",+B,+D,
"CCN(CC)C(=O)c1ccc2c(c1)N(S(=O)(=O)c1ccccc1)CCS2 [Example 65, N,N-diethyl-4-(phenylsulfonyl)-3,4-dihydro-2H-benzo[b][1,4]thiazine-6-carboxamide]",+C,+C,
